Numbers after ± are expanded uncertainties.
What was measured:
[1] = wn = mass fraction of the nth substance listed; conditions: for surface tension liquid-gas: Maximal bubble pressure; for mass density: 100 kPa, Liquid, Vibrating tube method
[2] = refractive index (Na D-line) (dimensionless); wn = mass fraction of the nth substance listed; conditions: 100 kPa, Liquid, Standard Abbe refractometry

CCCCCn1cc[n+](C)c1.C[C@@H](O)[C@H](N)C(=O)[O-] [1-pentyl-3-methylimidazolium DL-threoninate] + O
Conditions | mass density, [1] [kg/m3] | refractive index, [2] | surface tension liquid-gas, [1] [mN/m]
288.15 K, w2 = 0.0066 | 1107.18 ± 0.68 | 1.5071 ± 0.0013 | 38.8 ± 0.5
288.15 K, w2 = 0.0097 | 1106.95 ± 0.68 | 1.5067 ± 0.0013 | 39 ± 0.5
288.15 K, w2 = 0.0119 | 1106.76 ± 0.68 | 1.5064 ± 0.0013 | 39.2 ± 0.5
288.15 K, w2 = 0.0141 | 1106.59 ± 0.68 | 1.5061 ± 0.0013 | 39.4 ± 0.5
288.15 K, w2 = 0.0165 | 1106.41 ± 0.68 | 1.5058 ± 0.0013 | 39.6 ± 0.5
293.15 K, w2 = 0.0066 | 1103.87 ± 0.68 | 1.5056 ± 0.0013 | 38.4 ± 0.5
293.15 K, w2 = 0.0097 | 1103.64 ± 0.68 | 1.5053 ± 0.0013 | 38.6 ± 0.5
293.15 K, w2 = 0.0119 | 1103.45 ± 0.68 | 1.505 ± 0.0013 | 38.8 ± 0.5
293.15 K, w2 = 0.0141 | 1103.28 ± 0.68 | 1.5047 ± 0.0013 | 39 ± 0.5
293.15 K, w2 = 0.0165 | 1103.1 ± 0.68 | 1.5044 ± 0.0013 | 39.2 ± 0.5
298.15 K, w2 = 0.0066 | 1100.56 ± 0.68 | 1.504 ± 0.0013 | 38.2 ± 0.5
298.15 K, w2 = 0.0097 | 1100.33 ± 0.68 | 1.5037 ± 0.0013 | 38.4 ± 0.5
298.15 K, w2 = 0.0119 | 1100.14 ± 0.68 | 1.5034 ± 0.0013 | 38.6 ± 0.5
298.15 K, w2 = 0.0141 | 1099.97 ± 0.68 | 1.5032 ± 0.0013 | 38.8 ± 0.5
298.15 K, w2 = 0.0165 | 1099.79 ± 0.68 | 1.5028 ± 0.0013 | 39 ± 0.5
303.15 K, w2 = 0.0066 | 1097.21 ± 0.68 | 1.5024 ± 0.0013 | 37.8 ± 0.5
303.15 K, w2 = 0.0097 | 1096.98 ± 0.68 | 1.5021 ± 0.0013 | 38.1 ± 0.5
303.15 K, w2 = 0.0119 | 1096.79 ± 0.68 | 1.5017 ± 0.0013 | 38.3 ± 0.5
303.15 K, w2 = 0.0141 | 1096.61 ± 0.68 | 1.5015 ± 0.0013 | 38.5 ± 0.5
303.15 K, w2 = 0.0165 | 1096.42 ± 0.68 | 1.5012 ± 0.0013 | 38.7 ± 0.5
308.15 K, w2 = 0.0066 | 1093.89 ± 0.68 | 1.5009 ± 0.0013 | 37.5 ± 0.5
308.15 K, w2 = 0.0097 | 1093.66 ± 0.68 | 1.5006 ± 0.0013 | 37.8 ± 0.5
308.15 K, w2 = 0.0119 | 1093.46 ± 0.68 | 1.5003 ± 0.0013 | 38 ± 0.5
308.15 K, w2 = 0.0141 | 1093.29 ± 0.68 | 1.5 ± 0.0013 | 38.2 ± 0.5
308.15 K, w2 = 0.0165 | 1093.09 ± 0.68 | 1.4997 ± 0.0013 | 38.4 ± 0.5
313.15 K, w2 = 0.0066 | 1090.6 ± 0.68 | 1.4992 ± 0.0013 | 37.2 ± 0.5
313.15 K, w2 = 0.0097 | 1090.36 ± 0.68 | 1.4988 ± 0.0013 | 37.5 ± 0.5
313.15 K, w2 = 0.0119 | 1090.16 ± 0.68 | 1.4984 ± 0.0013 | 37.7 ± 0.5
313.15 K, w2 = 0.0141 | 1089.98 ± 0.68 | 1.4982 ± 0.0013 | 37.9 ± 0.5
313.15 K, w2 = 0.0165 | 1089.78 ± 0.68 | 1.4978 ± 0.0013 | 38.1 ± 0.5
318.15 K, w2 = 0.0066 | 1087.14 ± 0.68 | 1.4977 ± 0.0013 | 36.9 ± 0.5
318.15 K, w2 = 0.0097 | 1086.89 ± 0.68 | 1.4974 ± 0.0013 | 37.2 ± 0.5
318.15 K, w2 = 0.0119 | 1086.69 ± 0.68 | 1.497 ± 0.0013 | 37.4 ± 0.5
318.15 K, w2 = 0.0141 | 1086.51 ± 0.68 | 1.4967 ± 0.0013 | 37.6 ± 0.5
318.15 K, w2 = 0.0165 | 1086.31 ± 0.68 | 1.4963 ± 0.0013 | 37.9 ± 0.5
323.15 K, w2 = 0.0066 | 1083.97 ± 0.68 | 1.4961 ± 0.0013 | 36.6 ± 0.5
323.15 K, w2 = 0.0097 | 1083.72 ± 0.68 | 1.4957 ± 0.0013 | 36.9 ± 0.5
323.15 K, w2 = 0.0119 | 1083.51 ± 0.68 | 1.4954 ± 0.0013 | 37.1 ± 0.5
323.15 K, w2 = 0.0141 | 1083.32 ± 0.68 | 1.4951 ± 0.0013 | 37.3 ± 0.5
323.15 K, w2 = 0.0165 | 1083.11 ± 0.68 | 1.4947 ± 0.0013 | 37.6 ± 0.5
328.15 K, w2 = 0.0066 | 1080.67 ± 0.68 | 1.4945 ± 0.0013 | 36.3 ± 0.5
328.15 K, w2 = 0.0097 | 1080.42 ± 0.68 | 1.4941 ± 0.0013 | 36.6 ± 0.5
328.15 K, w2 = 0.0119 | 1080.21 ± 0.68 | 1.4937 ± 0.0013 | 36.8 ± 0.5
328.15 K, w2 = 0.0141 | 1080.02 ± 0.67 | 1.4934 ± 0.0013 | 37 ± 0.5
328.15 K, w2 = 0.0165 | 1079.81 ± 0.67 | 1.4931 ± 0.0013 | 37.3 ± 0.5

Reference: the NIST ThermoML archive (doi:10.1016/j.jct.2017.07.024)
